Laboratory results taken from publication PMC12892976, “Alkylation-based optimization of antifungal FPPS inhibitors yields a potent, broad-spectrum lipophilic zoledronate derivative” (mBio, 2025).
≈ marks a conversion by molar mass, not a printed value. Where two headings read alike, the source gives them in different places.

What was measured:
[1] = system: Candida glabrata; assay: MIC/MFC broth microdilution (CLSI); settings: Nakaseomyces glabratus, CBS138;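 also: broth microdilution following CLSI M27-Ed4, MFC taken as the lowest drug level yielding no growth once MIC wells were subcultured on SDA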
Procedure: (§1) Antifungal susceptibility was determined by broth microdilution according to the CLSI guidelines described in M27-Ed4 ([16]). […] MFC was determined by back-plating drug-treated cultures from MIC broths onto SDA plates. The MFC was defined as the lowest concentration from which no colonies could be cultured.

[2] = system: HEK-293T cells; assay: MTT reduction cytotoxicity assay; type: cell-based; settings: Homo sapiens, HEK-293T, 72 h, MTT, 72 h
[3] = system: Aspergillus fumigatus; assay: MIC/MFC broth microdilution (CLSI); settings: ATCC204305
Procedure: as §1

[4] = system: Saccharomyces cerevisiae; assay: MIC/MFC broth microdilution (CLSI); type: cell-based; settings: Saccharomyces cerevisiae S288c
Procedure: as §1

[5] = system: eight fungal species; assay: MIC/MFC summary across the eight fungal species of Table 1; type: cell-based
Procedure: The antifungal activity of these compounds was evaluated according to CLSI guidelines ([16]).

[6] = system: Cryptococcus neoformans; assay: MIC/MFC broth microdilution (CLSI); settings: Cryptococcus neoformans;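 also: susceptibility testing followed the CLSI M27-Ed4 broth microdilution document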
Procedure: as §1

[7] = system: Aspergillus flavus; assay: MIC/MFC broth microdilution (CLSI); settings: ATCC204304
Procedure: as §1

[8] = system: Trichophyton rubrum; assay: MIC/MFC broth microdilution (CLSI); settings: Trichophyton rubrum
Procedure: as §1

[9] = system: Cryptococcus neoformans; assay: checkerboard drug interaction (FICI, MICc);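 as to all read-outs here: antifungal plus FPPS inhibitor pairs tested against Cryptococcus neoformans by simplified diagonal checkerboard screening, FICI computed under the Loewe additivity model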; type: cell-based; settings: C. neoformans; for INH FD (MIC-MICc fold decrease): fold decrease of inhibitor MIC
Procedure: (§2) Drug interactions between antifungals and FPPS inhibitors were investigated using a simplified checkerboard diagonal screening method ([45]). […] FICIs were determined according to the Loewe additivity model ([17]).

[10] = system: Trichophyton rubrum; assay: checkerboard drug interaction (FICI, MICc);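 also: simplified diagonal checkerboard screen pairing azole antifungals with FPPS inhibitors, FICI calculated under the Loewe additivity model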; type: cell-based; settings: T. rubrum
Procedure: as §2

[11] = system: Candida albicans; assay: MIC/MFC broth microdilution (CLSI); type: cell-based; settings: Candida albicans SC5314
Procedure: as §1

[12] = system: Cryptococcus deuterogattii; assay: checkerboard drug interaction (FICI, MICc);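 as to all read-outs here: simplified diagonal checkerboard screen pairing antifungal drugs with FPPS inhibitors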; type: cell-based; settings: C. deuterogattii; for INH FD (MIC-MICc fold decrease): fold decrease of inhibitor MIC
Procedure: as §2

[13] = system: Aspergillus fumigatus; assay: checkerboard drug interaction (FICI, MICc); type: cell-based;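 also: simplified diagonal checkerboard screen pairing antifungals with FPPS inhibitors against Aspergillus fumigatus, with FICI calculated under the Loewe additivity model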
Procedure: as §2

[14] = system: Cryptococcus deuterogattii; assay: MIC/MFC broth microdilution (CLSI); settings: Cryptococcus deuterogattii;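 also: broth microdilution per CLSI M27-Ed4. MFC is the lowest concentration yielding no colonies when MIC broths are subcultured onto SDA plates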
Procedure: as §1

[15] = system: Candida glabrata; assay: checkerboard drug interaction (FICI, MICc);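 as to all read-outs here: simplified diagonal checkerboard screen pairing antifungals with FPPS inhibitors, FICI calculated under the Loewe additivity model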; type: cell-based; settings: C. glabrata; for INH FD (MIC-MICc fold decrease): fold decrease of inhibitor MIC
Procedure: as §2

[16] = system: Candida albicans; assay: checkerboard drug interaction (FICI, MICc);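 as to all read-outs here: antifungal plus FPPS inhibitor combinations on Candida albicans tested by a simplified diagonal checkerboard screen, with FICI calculated under the Loewe additivity model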; type: cell-based; settings: C. albicans; for INH FD (MIC-MICc fold decrease): fold decrease of inhibitor MIC
Procedure: as §2

[17] = system: Aspergillus flavus; assay: checkerboard drug interaction (FICI, MICc);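 also: simplified diagonal checkerboard screen pairing azole antifungals with FPPS inhibitors, FICI calculated under the Loewe additivity model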; type: cell-based; design: INH MICc (KET:INH) / INH MICc (FLC:INH): unit not given beside the values; settings: A. flavus
[18] = system: Saccharomyces cerevisiae; assay: checkerboard drug interaction (FICI, MICc); type: cell-based; design: INH MICc / INH MICc (ITR:INH) / INH MICc (KET:INH) / INH MICc (FLC:INH): unit not given beside the values;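 also: simplified diagonal checkerboard screen pairing antifungals with FPPS inhibitors, FICI calculated under the Loewe additivity model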
[19] = system: eight fungal species; assay: checkerboard interaction with azoles, summary across the eight species; type: cell-based; settings: geometric mean MIC in combination with azoles
Description: Synergy between lipophilic FPPS inhibitors and azole antifungals was investigated by determining the fractional inhibitory concentration index (FICI) (Fig. 2; Table S1 Fig. S1) ([17]). […]. Derivatives PLA9 and 11, and PDA9, 11, and 12 antagonized azoles in C. albicans, C. neoformans, and C. deuterogattii, yet were largely synergistic in C. glabrata and S. cerevisiae. […].

[20] = FLC:INH combination, MIC of the inhibitor in combination with FLC
[21] = FLC:INH combination, fold decrease of FLC MIC
[22] = ITR:INH combination, MIC of the inhibitor in combination with ITR
[23] = ITR:INH combination, fold decrease of ITR MIC
[24] = KET:INH combination, MIC of the inhibitor in combination with KET
[25] = KET:INH combination, fold decrease of KET MIC
[26] = Fractional Inhibitory Concentration Index, fluconazole + inhibitor
[27] = Fractional Inhibitory Concentration Index, itraconazole + inhibitor
[28] = Fractional Inhibitory Concentration Index, ketoconazole + inhibitor
[29] = MIC of the inhibitor in combination with fluconazole
[30] = MIC of the inhibitor in combination with itraconazole
[31] = MIC of the inhibitor in combination with ketoconazole
[32] = MIC-MICc fold decrease of fluconazole, negative = increase
[33] = MIC-MICc fold decrease of itraconazole, negative = increase
[34] = MIC-MICc fold decrease of ketoconazole, negative = increase
[35] = MIC-MICc fold decrease of the inhibitor, with fluconazole
[36] = MIC-MICc fold decrease of the inhibitor, with itraconazole
[37] = MIC-MICc fold decrease of the inhibitor, with ketoconazole

CCCCCCCCCCCCN1CCC[C@H]1C(=O)N[C@@H](CC(=O)OC)C(=O)OC [dmPLA12]
MFC [1]: > 128 µg/mL
MIC [1]: > 128 µg/mL
IC50 ([2]; HEK-293T cells, read-out: IC50): 2.01 µg/mL (≈ 4.72 µM)
IC50 ([2]; read-out: HEK IC50): 2.01 µg/mL (≈ 4.72 µM)
MFC [3]: > 128 µg/mL
MIC [3]: 32 µg/mL (≈ 75 µM)
MFC [4]: 4 µg/mL (≈ 9.38 µM)
MIC [4]: 4 µg/mL (≈ 9.38 µM)
MFC ([5]; across eight species, read-out: Geometric mean MFC): 69.8 µg/mL (≈ 164 µM)
MIC ([5]; geometric mean across eight species, read-out: GM fungal MIC): 38.1 µg/mL (≈ 89.3 µM)
MIC ([5]; read-out: Geometric mean MIC): 38.1 µg/mL (≈ 89.3 µM)
MFC [6]: 16 µg/mL (≈ 37.5 µM)
MIC [6]: 16 µg/mL (≈ 37.5 µM)
MFC [7]: > 128 µg/mL
MIC [7]: > 128 µg/mL
MFC [8]: > 128 µg/mL
MIC [8]: 16 µg/mL (≈ 37.5 µM)
FICI ([9]; FLC:INH combination): 3
INH MICc [9, 20]: 32
FLC FD (MIC-MICc fold decrease) [9, 21]: 1
INH FD (MIC-MICc fold decrease) ([9]; FLC:INH combination): -2
FICI ([9]; ITR:INH combination): 1.5
INH MICc [9, 22]: 16
ITR FD (MIC-MICc fold decrease) [9, 23]: 2
INH FD (MIC-MICc fold decrease) ([9]; ITR:INH combination): 1
FICI ([9]; KET:INH combination): 0.75
INH MICc [9, 24]: 8
KET FD (MIC-MICc fold decrease) [9, 25]: 4
INH FD (MIC-MICc fold decrease) ([9]; KET:INH combination): 2
FICI (FLC:INH) [10, 26]: 1.13
FICI (ITR:INH) [10, 27]: 1.06
FICI (KET:INH) [10, 28]: 1.13
INH MICc (FLC:INH) [10, 29]: 16
INH MICc (ITR:INH) [10, 30]: 16
INH MICc (KET:INH) [10, 31]: 16
FLC FD (FLC:INH) [10, 32]: 8
ITR FD (ITR:INH) [10, 33]: 16
KET FD (KET:INH) [10, 34]: 8
INH FD (FLC:INH) [10, 35]: 1
INH FD (ITR:INH) [10, 36]: 1
INH FD (KET:INH) [10, 37]: 1
MFC [11]: > 128 µg/mL
MIC [11]: > 128 µg/mL
FICI ([12]; FLC:INH combination): 0.38
INH MICc [12, 20]: 16
FLC FD (MIC-MICc fold decrease) [12, 21]: 4
INH FD (MIC-MICc fold decrease) ([12]; FLC:INH combination): 8
FICI ([12]; ITR:INH combination): 0.63
INH MICc [12, 22]: 16
ITR FD (MIC-MICc fold decrease) [12, 23]: 2
INH FD (MIC-MICc fold decrease) ([12]; ITR:INH combination): 8
FICI ([12]; KET:INH combination): 0.19
INH MICc [12, 24]: 16
KET FD (MIC-MICc fold decrease) [12, 25]: 16
INH FD (MIC-MICc fold decrease) ([12]; KET:INH combination): 8
FICI (FLC:INH) [13, 26]: 1.5
FICI (ITR:INH) [13, 27]: 0.52
FICI (KET:INH) [13, 28]: 1
INH MICc (FLC:INH) [13, 29]: 128
INH MICc (ITR:INH) [13, 30]: 2
INH MICc (KET:INH) [13, 31]: 64
FLC FD (FLC:INH) [13, 32]: 2
ITR FD (ITR:INH) [13, 33]: 2
KET FD (KET:INH) [13, 34]: 2
INH FD (FLC:INH) [13, 35]: 1
INH FD (ITR:INH) [13, 36]: 64
INH FD (KET:INH) [13, 37]: 2
MFC [14]: 8 µg/mL (≈ 18.8 µM)
MIC [14]: 8 µg/mL (≈ 18.8 µM)
FICI ([15]; FLC:INH combination): 1
INH MICc [15, 20]: 8
FLC FD (MIC-MICc fold decrease) [15, 21]: 2
INH FD (MIC-MICc fold decrease) ([15]; FLC:INH combination): 2
FICI ([15]; ITR:INH combination): 0.38
INH MICc [15, 22]: 2
ITR FD (MIC-MICc fold decrease) [15, 23]: 4
INH FD (MIC-MICc fold decrease) ([15]; ITR:INH combination): 8
FICI ([15]; KET:INH combination): 0.75
INH MICc [15, 24]: 4
KET FD (MIC-MICc fold decrease) [15, 25]: 2
INH FD (MIC-MICc fold decrease) ([15]; KET:INH combination): 4
FICI ([16]; FLC:INH combination): 1.06
INH MICc [16, 20]: 8
FLC FD (MIC-MICc fold decrease) [16, 21]: 1
INH FD (MIC-MICc fold decrease) ([16]; FLC:INH combination): 16
FICI ([16]; ITR:INH combination): ≥4
INH MICc [16, 22]: 32
ITR FD (MIC-MICc fold decrease) [16, 23]: -4
INH FD (MIC-MICc fold decrease) ([16]; ITR:INH combination): 4
FICI ([16]; KET:INH combination): 2.13
INH MICc [16, 24]: 16
KET FD (MIC-MICc fold decrease) [16, 25]: -2
INH FD (MIC-MICc fold decrease) ([16]; KET:INH combination): 8
FICI (FLC:INH) [17, 26]: 1.5
FICI (ITR:INH) [17, 27]: 0.5
FICI (KET:INH) [17, 28]: 0.52
INH MICc (FLC:INH) [17, 29]: 128
INH MICc (ITR:INH) [17, 30]: 64
INH MICc (KET:INH) [17, 31]: 4
FLC FD (FLC:INH) [17, 32]: 1
ITR FD (ITR:INH) [17, 33]: 4
KET FD (KET:INH) [17, 34]: 2
INH FD (FLC:INH) [17, 35]: 2
INH FD (ITR:INH) [17, 36]: 4
INH FD (KET:INH) [17, 37]: 64
FICI (FLC:INH) [18, 26]: 0.75
FICI (ITR:INH) [18, 27]: 0.75
FICI (KET:INH) [18, 28]: 0.38
INH MICc (FLC:INH) [18, 29]: 2
INH MICc (ITR:INH) [18, 30]: 1
INH MICc (KET:INH) [18, 31]: 1
FLC FD (FLC:INH) [18, 32]: 4
ITR FD (ITR:INH) [18, 33]: 2
KET FD (KET:INH) [18, 34]: 8
INH FD (FLC:INH) [18, 35]: 2
INH FD (ITR:INH) [18, 36]: 4
INH FD (KET:INH) [18, 37]: 4
GM fungal MICc [19]: 11.3
